In ChEMBL document CHEMBL3621180, “Isolation of two new bioactive sesquiterpene lactone glycosides from the roots of Ixeris dentata” (Bioorg Med Chem Lett, 2015):

Legend:
[1] = Antiinflammatory activity in […] BV2 cells assessed as inhibition of lipopolysaccharide-induced nitric oxide production at 5 uM incubated for 24 hrs by Griess reagent based assay (reference value: 20.3 +/- 0.1 uM); type: functional, BV-2
[2] = Antiinflammatory activity in […] BV2 cells assessed as inhibition of lipopolysaccharide-induced nitric oxide production at 20 uM incubated for 24 hrs by Griess reagent based assay (reference value: 20.3 +/- 0.1 uM); type: functional, BV-2
[3] = Cytotoxic activity against […] BV2 cells assessed as cell viability at 5 uM incubated for 24 hrs by MTT assay (reference value: 100%); type: cell-based, BV-2; details: read-out: Activity
[4] = Cytotoxic activity against […] BV2 cells assessed as cell viability at 20 uM incubated for 24 hrs by MTT assay (reference value: 100%); type: cell-based, BV-2; details: mouse, read-out: Activity

Row | Structure (SMILES) | Activity [1] [µM] | Activity [2] [µM] | viability at 24 h, 5 µM [3] [%] | viability at 24 h, 20 µM [4] [%]
1 | C=C1C[C@@H](O)[C@@H]2[C@H](OC(=O)[C@H]2C)[C@H]2C(C)=C(O[C@@H]3O[C@H](CO)[C@@H](O)[C@H](O)[C@H]3O)C[C@@H]12 | 19.9 | 17.2 | 108 | 108
2 | C=C1C(=O)O[C@@H]2[C@H]3C(C)=C(O[C@@H]4O[C@H](CO)[C@@H](O)[C@H](O)[C@H]4O)C[C@H]3C(=C)C[C@@H](OC(=O)Cc3ccc(O)cc3)[C@@H]12 | 18.2 | 9.3 | 106 | 103
3 | C=C1[C@@H]2[C@H]3OC(=O)[C@@H](C)[C@@H]3CCC(=C)[C@@H]2C[C@@H]1O[C@@H]1O[C@H](CO)[C@@H](O)[C@H](O)[C@H]1O | 19.9 | 18.2 | 116 | 116
4 | C=C1[C@@H]2[C@H]3OC(=O)[C@@H](C)[C@@H]3C[C@@H](O)C(=C)[C@@H]2C[C@@H]1O[C@@H]1O[C@H](CO)[C@@H](O)[C@H](O)[C@H]1O | 18.6 | 17.5 | 102 | 114
5 | C=C1[C@@H]2[C@H]3OC(=O)C(=C)[C@@H]3C[C@@H](O)C(=C)[C@@H]2C[C@@H]1O[C@@H]1O[C@H](CO)[C@@H](O)[C@H](O)[C@H]1O | 19.7 | 18.7 | 110 | 110
6 | C=C1C(=O)O[C@@H]2[C@H]3C(=C)[C@@H](O[C@@H]4O[C@H](CO)[C@@H](O)[C@H](O)[C@H]4O)C[C@H]3C(=C)C[C@@H](O)[C@@H]12 | 19.8 | 17.6 | 104 | 103
7 | C=C1C[C@@H](O)[C@@H]2[C@H](OC(=O)[C@H]2C)[C@H]2[C@H](C)[C@@H](O[C@@H]3O[C@H](CO)[C@@H](O)[C@H](O)[C@H]3O)C[C@@H]12 | 19.6 | 19.4 | 103 | 103
8 | C=C1[C@@H]2[C@H]3OC(=O)[C@@H](C)[C@@H]3[C@H](O)CC(=C)[C@@H]2C[C@@H]1O[C@@H]1O[C@H](CO)[C@@H](O)[C@H](O)[C@H]1O | 20.4 | 18 | 106 | 105
9 | C=C1C(=O)O[C@@H]2[C@H]3C(=C)[C@@H](O[C@@H]4O[C@H](CO)[C@@H](O)[C@H](O)[C@H]4O)C[C@H]3C(=C)C[C@@H](OC(=O)Cc3ccc(O)cc3)[C@@H]12 | 20.3 | 16.3 | 106 | 109
10 | C=C1C(=O)O[C@@H]2[C@H]3C(=C)[C@@H](O[C@@H]4O[C@H](CO)[C@@H](O)[C@H](O)[C@H]4O)C[C@H]3C(=C)C[C@@H](OC(=O)C(O)C(C)C)[C@@H]12 (stereo not given in full) | 21.5 | 18.2 | 105 | 97.5
11 | CC1=C2[C@H]3OC(=O)[C@@H](C)[C@@H]3CC[C@@]2(C)[C@H](O)CC1 | 17.9 | 17.7 | 110 | 110
12 | CC1=CC[C@@H](O[C@@H]2O[C@H](CO)[C@@H](O)[C@H](O)[C@H]2O)[C@]2(C)CC[C@@H]3[C@H](OC(=O)[C@H]3C)[C@@H]12 | 18.9 | 18.4 | 107 | 112
13 | C=C1C(=O)O[C@@H]2/C=C(\CO[C@@H]3O[C@H](CO)[C@@H](O)[C@H](O)[C@H]3O)CC/C=C(\C)CC[C@@H]12 | 20.1 | 18 | 105 | 103
14 | C/C1=C\CC/C(CO[C@@H]2O[C@H](CO)[C@@H](O)[C@H](O)[C@H]2O)=C/[C@H]2OC(=O)[C@@H](C)[C@@H]2CC1 | 19.6 | 18.8 | 113 | 107
15 | CNC(=N)NCCC[C@H](N)C(=O)O [TILARGININE] | 20.1 | 14.1 | 112 | 108
